# Experimental data from the Bradley open melting point set (2014).
row,Structure (SMILES),melting point
1,CC1(C)[C@H]2CC[C@]1(C)C(=O)C2 [Camphor],180 °C
2,"ClC/C=C\CCl [cis-1,4-dichloro-2-butene]",-48 °C
3,"BrCCCBr [1,3-dibromopropane]",-34 °C
4,C[C@@H]1O[C@H](O)[C@@H](O)[C@H](O)[C@H]1O [Rhamnose],122 °C
5,C[C@H]1O[C@@H](O[C@H]2[C@@H](O)C[C@H](O[C@H]3[C@@H](O)C[C@H](O[C@H]4CC[C@@]5(C)[C@H](CC[C@@H]6[C@@H]5C[C@@H](O)[C@]5(C)C(C7=CC(=O)OC7)CC[C@]65O)C4)O[C@@H]3C)O[C@@H]2C)C[C@H](O)[C@@H]1O (stereo partly drawn) [Digoxin],249 °C
6,CCOCOCC [diethoxymethane],-66 °C
7,NC(=O)N[C@@H]1O[C@H](CO)[C@@H](O)[C@H](O)[C@H]1O [N-Carbamoyl-beta-D-glucopyranosylamine],207 °C
8,C[C@]12CCC(=O)C=C1CC[C@@H]1[C@@H]2[C@@H](O)C[C@]2(C=O)[C@@H](C(=O)CO)CC[C@@H]12 [Aldosterone],166 °C
9,[SiH3][SiH3] [Disilane],-133 °C
10,C1CCCC1 [Cyclopentane],-94 °C
11,CCCC(=O)O [butyric acid],-5.7 °C
12,NC1=NCC(c2ccccc2)O1 (stereo not drawn) [Aminorex],137 °C
13,CC(C)CC=CB(O)O [4-methyl-1-pentenylboronic acid],101 °C
14,C/C=C\Br [cis-1-bromo-1-propene],-113 °C
15,Nc1ccc([N+](=O)[O-])cc1C(=O)c1ccccc1 [2-amino-5-nitrobenzophenone],167 °C
16,II [Iodine],114 °C

row,Structure (SMILES),melting point
1,Cc1ccc(C)cc1 [p-xylene],13 °C
2,CC=O [Acetaldehyde],-124 °C
3,O=[O+][O-] [Trioxid-2-en-2-ium-1-ide],-193 °C
4,C[Si](C)(C)OB(O[Si](C)(C)C)O[Si](C)(C)C [tris(trimethylsilyl) borate],-35 °C
5,"CC(C)CCCCC(C)C [2,7-dimethyloctane]",-54 °C
6,CCCCCCCCCCC(O)CCCCCCCCCC [11-heneicosanol],72 °C
7,OC[C@@H](O)[C@H](O)[C@H](O)[C@@H](O)CO [dulcitol],189 °C
8,O=C1CCN(C(=O)c2ccccc2)CC1 [1-benzoyl-4-piperidone],55 °C
9,CC(C)C=O [isobutyraldehyde],-65 °C
10,CN1[C@@H]2CC[C@H]1C[C@@H](O)C2 [tropine],63 °C
11,CC(C)OC(C)C [diisopropyl_ether],-86 °C
12,Cc1ccc(CCl)cc1 [4-methylbenzyl chloride],5 °C
13,CCOC(=O)/C=C/C(=O)OCC [diethyl_fumarate],2 °C
14,CS(=O)(=O)CCO [2-(methylsulfonyl)ethanol],29 °C
15,O=c1[nH]c(=O)n([C@H]2C[C@H](O)[C@@H](CO)O2)cc1F [Floxuridine],150 °C

# Other lines, results leading:
row,melting point,Structure (SMILES)
1,147 °C,c1ccc(B(c2ccccc2)c2ccccc2)cc1 [triphenylborane]
2,230 °C,CCn1cc(C(=O)O)c(=O)c2ccc(C)nc21
3,-69 °C,C=Cc1ccccc1C [2-methylstyrene]
4,140 °C,NC(=O)c1ccccc1O [Salicylamide]
5,-9 °C,Brc1cccc(I)c1 [m-bromoiodobenzene]
6,78 °C,CC(=O)c1cccc([N+](=O)[O-])c1 [3'-nitroacetophenone]
7,89 °C,CC(=O)SCC(Cc1ccccc1)C(=O)NCC(=O)OCc1ccccc1 (stereo not drawn) [acetorphan]
8,64 °C,"Clc1cc(Cl)cc(Cl)c1 [1,3,5-trichlorobenzene]"
9,20 °C,"CC1=CC(=O)CC(C)(C)C1=O [2,6,6-trimethyl-2-cyclohexene-1,4-dione]"
10,38 °C,O=C1CCOc2ccccc21 [4-chromanone]
11,112 °C,"CCC1(O)CCC(c2ccccc2)c2ccccc21 (stereo not drawn) [1-ethyl-4-phenyl-1,2,3,4-tetrahydronaphthalen-1-ol]"
12,36 °C,N#CCc1ccc(Cc2ccccc2)cc1 [4-benzylphenylacetonitrile]
13,171 °C,O=C(O)/C=C/c1ccccc1B(O)O [2-(2-carboxyvinyl)benzeneboronic acid]
14,10 °C,Cc1ccnc2ccccc12 [lepidine]
15,91 °C,"c1ccc(-c2cccc(-c3ccccn3)n2)nc1 [2,2':6',2''-terpyridine]"
16,124 °C,CCc1oc2ccccc2c1C(=O)c1ccc(O)cc1 [benzarone]
17,153 °C,Cc1ccccc1-c1nnn[nH]1 [5-(2-methylphenyl)-1h-tetrazole]
18,38 °C,COC(=O)c1sccc1Cl [methyl 3-chlorothiophene-2-carboxylate]
19,130 °C,"CCC(=O)c1cc(F)c(O)c(F)c1 [3',5'-difluoro-4'-hydroxypropiophenone]"
20,290 °C,COc1cc2nc(N3CCN(C(=O)C4COc5ccccc5O4)CC3)nc(N)c2cc1OC (stereo not drawn) [Doxazosin]
21,204 °C,C[C@@](Cc1ccc(O)c(O)c1)(NN)C(=O)O [Carbidopa]

row,melting point,Structure (SMILES)
1,104 °C,CC(CCc1oc2ccc(C)cc2c1-c1ccc(C)o1)=NO
2,164 °C,COc1cc(C=O)cc(Cl)c1O [5-chlorovanillin]
3,19 °C,COc1ccc(N=C=S)cc1 [4-methoxyphenyl isothiocyanate]
4,116 °C,"O=C1Cc2c1cccc2[N+](=O)[O-] [2-nitrobicyclo[4.2.0]octa-1,3,5-trien-7-one]"
5,129 °C,Cc1cccc(C(=O)O)n1 [6-methylpyridine-2-carboxylic acid]
6,201 °C,NC(=O)c1ccc([N+](=O)[O-])cc1 [p-nitrobenzamide]
7,242 °C,Cn1cnc(C(=O)O)c1 [1-methylimidazole-4-carboxylic acid]
8,157 °C,COc1c(B(O)O)cccc1C(=O)O [3-(Dihydroxyboryl)-2-methoxybenzoic acid]
9,76 °C,COc1cc(/C=C/CO)ccc1O [coniferyl alcohol]
10,112 °C,NC(=O)c1ccccc1N [2-aminobenzamide]
11,189 °C,"CCc1nnc2cc(-c3ccccc3)[nH]n12 [3-ethyl-6-phenyl-5H-pyrazolo[5,1-c][1,2,4]triazole]"
12,7 °C,Cc1ccc(N)c(Cl)c1 [2-chloro-4-methylaniline]
13,115 °C,N#CCc1ccccc1C(=O)O [o-cyanomethyl_benzoic_acid]
14,87 °C,COc1ccc2cc(C(C)CO)ccc2c1 (stereo not drawn) [naproxol]
15,185 °C,O=C(O)c1ccc(F)cc1 [4-fluorobenzoic acid]
16,24 °C,CC(=O)c1cccc(N=C=S)c1 [3-acetylphenyl isothiocyanate]
17,103 °C,COc1ccc(-c2ccc(S(=O)(=O)Cl)cc2)cc1 [4'-methoxybiphenyl-4-sulfonyl chloride]
18,62 °C,"Oc1ccc2c(c1)CCCC2 [5,6,7,8-tetrahydro-2-naphthol]"
19,-43 °C,"Cc1cc(C)nc(C)c1 [2,4,6-collidine]"
20,78 °C,OCc1ccc(Br)cc1 [4-bromobenzyl alcohol]
21,135 °C,CCC1(c2ccccc2)NC(=O)N(C)C1=O (stereo not drawn) [Mephenytoin]
